Data: patent US4035566A, “N-trifluoroacetyladriamycin-14-alkanoates and therapeutic compositions containing same” (Sidney Farber Cancer Institute, Inc., priority 1975, dated 1977)
Where two headings read alike, the source gives them in different places.

Columns and labels:
CCRF-CEM cell line = assay: in vitro growth inhibition of CCRF-CEM cell line in culture (Foley and Lazarus procedure); type: cell-based, child; settings: Homo sapiens, read-out: ID50 (dose required to inhibit growth of the cultures by 50% relative to control cultures)
Protocol: (§1) The toxicity and therapeutic effectiveness of the new compounds and active agents of the present invention are shown by in vitro assays and by in vivo evaluations in mice. The in vitro assays measure the growth inhibiting activity of the materials against the CCRF-CEM cell line in culture. The cell line was derived from the peripheral blood and a child with lymphoblastic leukemia as described by Foley et al., Cancer, Volume 18, page 522 et seq. (1965), and the assays were carried out by the procedure of Foley and Lazarus, Biochem. Pharmacol., Volume 16, pages 659 et seq. (1967), the results being reported in terms of the dose in micromoles per liter required to inhibit growth of the cultures by 50% relative to control cultures to which no drug had been added (ID50). The in vivo evaluations were made by preparing a 0.2 to 0.7% by weight solution of the active agent in a 10% by volume aqueous solution of polyoxyethylene sorbitan monooleate (polysorbate 80) as a carrier and injecting the dosage intraperitoneally. The evaluations were made of the antitumor activity against the murine P 388 and murine L 1210 leukemias in BDF1 male mice according to standard National Cancer Institute protocols as set forth by Geran et al., Cancer Chemotherap. Rep., Part 3, Volume 3, pages 1 et seq. (1972), except that a qd 1-4 schedule was used in place of qd 1-9 in order to conserve materials. Evaluations were also made of the antitumor activity against the Ridgway osteogenic sarcoma, a solid tumor, in AKD2 /F1 mice, according to the procedures described in the report by G. J. D'Angio, C. L. Maddock, S. Farber, and B. L. Brown, Cancer Research, 25, 1002-1007 (1965).
The following table summarizes the inhibitory activity of various N-trifluoroacetyladriamycin-14-alkanoates as well as other materials when tested in vitro as described in the paragraphs preceding Example 1 above.

murine P 388 leukemia = assay: in vivo antitumor activity against murine P 388 leukemia (Geran et al. procedure); set-up: species or system BDF1 male mice; settings: Table II, i.p., qd 1-4; for Survivors 60da: optimal dose mg/kg: acetate 40, isobutyrate 40, valerate 40, caproate 60, caprylate 60; for MILS (Median Increase in Life Span Compared with Untreated Mice) / Survivors 30da: optimal dose mg/kg: adriamycin 4.0, daunomycin 2.0, acetate 40, isobutyrate 40, valerate 40, caproate 60, caprylate 60
Protocol: as §1
(§2) Optimal dosage was determined by testing doses which were at several multiples of 10 milligrams/kilogram of body weight and the optimal dose was used for further tests. Some effectiveness can be observed at dosages ranging from 20 to 70 milligrams/kilogram of body weight, depending upon the particular ester employed.
The following table summarizes the in vivo antitumor activity against murine P 388 leukemia tested by the Geran et al. procedure as exampled above: […]

murine L 1210 leukemia [1] = assay: in vivo antitumor activity against murine L 1210 leukemia (Geran et al. procedure); set-up: species or system BDF1 male mice; settings: for MILS / Survivors 30da / Survivors 60da: Table III, qd 1-4
Protocol: as §1, §2
The murine L 1210 leukemia is generally poorly responsive to chemotherapy. […] The following table summarizes the results of three separate in vivo tests of N-trifluoroacetyladriamycin-14-valerate against murine L 1210 leukemia following the Geran et al. procedure as described above: […]

[2] = test system: murine Ridgway osteogenic sarcoma; assay: in vivo antitumor activity against murine Ridgway osteogenic sarcoma (D'Angio et al. procedure); set-up: species or system AKD2 /F1 mice; settings: for MILS / Median Survival: Table IV, days 16-19
Protocol: as §1
The following table summarizes the in vivo antitumor activity of N-trifluoroacetyladriamycin-14-valerate against the murine Ridgway osteogenic sarcoma following the D'Angio et at. procedure as described above:
*Therapy was started on day 16 when the intramuscularly implanted tumor was palpable. Seven mice were used in each group, and all compounds were administered intraperitoneally.
Complete remission in this system is defined as the absence of palpable tumor.

mice = assay: toxicity in mice in the in vivo antitumor tests; settings: P 388 test conditions, qd 1-4; for toxicity: dose of 60 mg/kg i.p.
Protocol: as §1, §2

murine L 1210 leukemia [3] = settings: background statement; cited from earlier work
malignant tumors = settings: cited from earlier work; for clinical effectiveness: certain malignant tumors, e.g. induction of remission in acute leukemia
[4] = toxicity in mice in the in vivo antitumor tests; settings: mouse, in vivo, ip; L1210 test, qd 1-4 schedule; read-out: doses above which toxicity displayed
Protocol: as §1, §2

[5] = Ridgway tumor, complete remission = absence of palpable tumor
[6] = L1210 leukemia, same conditions as Table III

SMILES: COc1cccc2c1C(=O)c1c(O)c3c(c(O)c1C2=O)C[C@@](O)(C(=O)COC(C)=O)C[C@@H]3O[C@H]1C[C@H](NC(=O)C(F)(F)F)[C@H](O)[C@H](C)O1 [Acetate, N-trifluoroacetyladriamycin-14-acetate]
- IC50 (CCRF-CEM cell line; CCRF-CEM cells, Table I): 200 nM
- Survivors 60da (murine P 388 leukemia): 0/5
- MILS (Median Increase in Life Span Compared with Untreated Mice) (murine P 388 leukemia): 173%
- Survivors 30da (murine P 388 leukemia): 2/5

SMILES: COc1cccc2c1C(=O)c1c(O)c3c(c(O)c1C2=O)C[C@@](O)(C(=O)CO)C[C@@H]3O[C@H]1C[C@H](N)[C@H](O)[C@H](C)O1 [Adriamycin]
- IC50 (CCRF-CEM cell line; CCRF-CEM): 66 nM
- MILS (Median Increase in Life Span Compared with Untreated Mice) (murine P 388 leukemia): 132%
- Survivors 30da (murine P 388 leukemia): 0/6
- MILS (murine L 1210 leukemia [1]; first test, 4.0 mg/kg i.p.): 45%
- Survivors 30da (murine L 1210 leukemia [1]; first test, 4.0 mg/kg i.p.): 0/5
- MILS (murine L 1210 leukemia [1]; second test, 4.0 mg/kg i.p.): 54%
- Survivors 30da (murine L 1210 leukemia [1]; second test, 4.0 mg/kg i.p.): 1/5
- Survivors 60da (murine L 1210 leukemia [1]; second test, 4.0 mg/kg i.p.): 0/5
- MILS (murine L 1210 leukemia [1]; third test, 4.0 mg/kg i.p.): 42%
- Survivors 30da (murine L 1210 leukemia [1]; third test, 4.0 mg/kg i.p.): 0/7
- MILS ([2]; 3.0 mg/kg i.p.): 40%
- Median Survival ([2]; 3.0 mg/kg i.p.): 51.0 days
- dose at and above which toxic (mice; i.p.): ≥ 4 mg/kg
- effectiveness in prolonging survival of mice bearing L 1210 leukemia (general statement) (murine L 1210 leukemia [3]): only moderately effective
- clinical effectiveness (malignant tumors): effective clinically against certain malignant tumors
- toxicities in chemotherapy (malignant tumors; limiting long-term use): a variety of toxicities which limit the effectiveness of the compounds
- clinical efficacy against certain solid tumors (malignant tumors; solid tumors): has shown clinical efficacy against certain solid tumors

SMILES: CCCCCCCCCC(=O)OCC(=O)[C@]1(O)Cc2c(O)c3c(c(O)c2[C@@H](O[C@H]2C[C@H](NC(=O)C(F)(F)F)[C@H](O)[C@H](C)O2)C1)C(=O)c1c(OC)cccc1C3=O [Caprate, N-Trifluoroacetyladriamycin-14-caprate]
- IC50 (CCRF-CEM cell line; CCRF-CEM cells, Table I): 390 nM

SMILES: CCCCCC(=O)OCC(=O)[C@]1(O)Cc2c(O)c3c(c(O)c2[C@@H](O[C@H]2C[C@H](NC(=O)C(F)(F)F)[C@H](O)[C@H](C)O2)C1)C(=O)c1c(OC)cccc1C3=O [Caproate, N-Trifluoroacetyladriamycin-14-caproate]
- IC50 (CCRF-CEM cell line; CCRF-CEM cells, Table I): 330 nM
- Survivors 60da (murine P 388 leukemia): 1/5
- MILS (Median Increase in Life Span Compared with Untreated Mice) (murine P 388 leukemia): 271%
- Survivors 30da (murine P 388 leukemia): 5/5
- toxicity (mice): no toxicity was observed

SMILES: CCCCCCCC(=O)OCC(=O)[C@]1(O)Cc2c(O)c3c(c(O)c2[C@@H](O[C@H]2C[C@H](NC(=O)C(F)(F)F)[C@H](O)[C@H](C)O2)C1)C(=O)c1c(OC)cccc1C3=O [Caprylate, N-Trifluoroacetyladriamycin-14-caprylate]
- IC50 (CCRF-CEM cell line; CCRF-CEM cells, Table I): 360 nM
- Survivors 60da (murine P 388 leukemia): 1/5
- MILS (Median Increase in Life Span Compared with Untreated Mice) (murine P 388 leukemia): 243%
- Survivors 30da (murine P 388 leukemia): 5/5
- toxicity (mice): no toxicity was observed

SMILES: COc1cccc2c1C(=O)c1c(O)c3c(c(O)c1C2=O)C[C@@](O)(C(C)=O)C[C@@H]3O[C@H]1C[C@H](N)[C@H](O)[C@H](C)O1 [Daunomycin, reference compound]
- IC50 (CCRF-CEM cell line; CCRF-CEM): 35 nM
- MILS (Median Increase in Life Span Compared with Untreated Mice) (murine P 388 leukemia): 91%
- Survivors 30da (murine P 388 leukemia): 0/6
- effectiveness in prolonging survival of mice bearing L 1210 leukemia (general statement) (murine L 1210 leukemia [3]): much less so
- clinical effectiveness (malignant tumors): effective clinically against certain malignant tumors
- toxicities in chemotherapy (malignant tumors; in vivo): a variety of toxicities which limit the effectiveness of the compounds

SMILES: COc1cccc2c1C(=O)c1c(O)c3c(c(O)c1C2=O)C[C@@](O)(C(=O)COC(=O)C(C)C)C[C@@H]3O[C@H]1C[C@H](NC(=O)C(F)(F)F)[C@H](O)[C@H](C)O1 [Isobutyrate, N-Trifluoroacetyladriamycin-14-isobutyrate]
- IC50 (CCRF-CEM cell line; CCRF-CEM cells, Table I): 280 nM
- Survivors 60da (murine P 388 leukemia): 1/5
- MILS (Median Increase in Life Span Compared with Untreated Mice) (murine P 388 leukemia): 150%
- Survivors 30da (murine P 388 leukemia): 3/5

SMILES: CCCCC(=O)OCC(=O)[C@]1(O)Cc2c(O)c3c(c(O)c2[C@@H](O[C@H]2C[C@H](NC(=O)C(F)(F)F)[C@H](O)[C@H](C)O2)C1)C(=O)c1c(OC)cccc1C3=O [N-Trifluoroacetyladriamycin-14-valerate]
- IC50 (CCRF-CEM cell line; CCRF-CEM cells, Table I): 240 nM
- Survivors 60da (murine P 388 leukemia): 3/5
- MILS (Median Increase in Life Span Compared with Untreated Mice) (murine P 388 leukemia): 429%
- Survivors 30da (murine P 388 leukemia): 4/5
- MILS (murine L 1210 leukemia [1]; first test, 60.0 mg/kg i.p.): > 445%
- Survivors 30da (murine L 1210 leukemia [1]; first test, 60.0 mg/kg i.p.): 4/5
- Survivors 60da (murine L 1210 leukemia [1]; first test, 60.0 mg/kg i.p.): 4/5
- MILS (murine L 1210 leukemia [1]; first test, 70.0 mg/kg i.p.): > 445%
- Survivors 30da (murine L 1210 leukemia [1]; first test, 70.0 mg/kg i.p.): 4/5
- Survivors 60da (murine L 1210 leukemia [1]; first test, 70.0 mg/kg i.p.): 4/5
- MILS (murine L 1210 leukemia [1]; second test, 50.0 mg/kg i.p.): > 445%
- Survivors 30da (murine L 1210 leukemia [1]; second test, 50.0 mg/kg i.p.): 4/7
- Survivors 60da (murine L 1210 leukemia [1]; second test, 50.0 mg/kg i.p.): 4/7
- MILS (murine L 1210 leukemia [1]; second test, 60.0 mg/kg i.p.): > 445%
- Survivors 30da (murine L 1210 leukemia [1]; second test, 60.0 mg/kg i.p.): 3/6
- Survivors 60da (murine L 1210 leukemia [1]; second test, 60.0 mg/kg i.p.): 3/6
- MILS (murine L 1210 leukemia [1]; third test, 50.0 mg/kg i.p.): > 400%
- Survivors 30da (murine L 1210 leukemia [1]; third test, 50.0 mg/kg i.p.): 5/7
- Survivors 60da (murine L 1210 leukemia [1]; third test, 50.0 mg/kg i.p.): 5/7
- MILS (murine L 1210 leukemia [1]; third test, 60.0 mg/kg i.p.): > 400%
- Survivors 30da (murine L 1210 leukemia [1]; third test, 60.0 mg/kg i.p.): 6/7
- Survivors 60da (murine L 1210 leukemia [1]; third test, 60.0 mg/kg i.p.): 6/7
- gross number of complete remissions compared with adriamycin [2, 5]: the gross number of complete remissions was greater
- median duration of complete remission compared with adriamycin [2, 5]: the median duration of complete remission was longer
- MILS ([2]; 50.0 mg/kg i.p.): 130%
- Median Survival ([2]; 50.0 mg/kg i.p.): 84.0 days
- MILS ([2]; 60.0 mg/kg i.p.): 122%
- Median Survival ([2]; 60.0 mg/kg i.p.): 81.0 days

SMILES: COc1cccc2c1C(=O)c1c(O)c3c(c(O)c1C2=O)C[C@@](O)(C(=O)COC(=O)C(C)(C)C)C[C@@H]3O[C@H]1C[C@H](NC(=O)C(F)(F)F)[C@H](O)[C@H](C)O1 [Pivalate, N-Trifluoroacetyladriamycin-14-pivalate]
- IC50 (CCRF-CEM cell line; CCRF-CEM cells, Table I): 590 nM

SMILES: CCC(=O)OCC(=O)[C@]1(O)Cc2c(O)c3c(c(O)c2[C@@H](O[C@H]2C[C@H](NC(=O)C(F)(F)F)[C@H](O)[C@H](C)O2)C1)C(=O)c1c(OC)cccc1C3=O [Propionate, N-Trifluoroacetyladriamycin-14-propionate]
- IC50 (CCRF-CEM cell line; CCRF-CEM cells, Table I): 300 nM

SMILES: CCCCC(=O)OCC(=O)[C@]1(O)Cc2c(O)c3c(c(O)c2[C@@H](O[C@H]2C[C@H](N)[C@H](O)[C@H](C)O2)C1)C(=O)c1c(OC)cccc1C3=O [adriamycin-14-valerate, reference compound]
- effectiveness in prolonging survival of tumor-bearing mice compared with daunomycin (murine L 1210 leukemia [1]; [6]): no more effective than daunomycin
- survivors after 30 days (murine L 1210 leukemia [1]; [6]): no survivors after 30 days
- MTD [4]: > 4 mg/kg
